Test results reported in patent US11986450B2, “Methods and compositions for treating infection and inflammation with selenocyanate” (National Jewish Health, priority 2017, dated 2024).

Columns and labels:
[1] = system: Pseudomonas aeruginosa (PA01); experiment: Bacterial viability (CFU) after HOSCN generation; assay type: cell-based; conditions: 2 hrs, about 120 μM/hr
Method: (§1) FIGS. 4A-4B. […] Studies were conducted under similar conditions that generated about 120 μM/hr of either HOCl or HOSCN. (FIG. 4A) Human bronchiolar lung cells (16HBE) or (FIG. 4B) Pseudomonas aeruginosa (PA01) were treated for 2 hrs with glucose oxidase (GOX) system (generates H2O2), enzyme alone (MPO or LPO), or full system (enzyme+GOX), or full system with […]. Viability was assessed 24 hrs later by lactate dehydrogenase release for lung cells or determination of colony forming units (CFUs) for bacteria.

[2] = system: P. aeruginosa: PAO1; experiment: Viability after HOSCN exposure
[3] = system: P. aeruginosa: AMT0105L; experiment: Viability after HOSCN exposure; conditions: late disease antibiotic-resistant CF isolate
[4] = system: P. aeruginosa: AMT0058L; experiment: Viability after HOSCN exposure; conditions: late disease antibiotic-resistant CF isolate
[5] = target: purified E. coli Cys-TrxR (Escherichia coli, UniProt P0A9P4); experiment: Sulfenic acid (dimedone label) formation, western blot; assay type: biochemical; conditions: 5 minutes exposure; reversible by NAC
Method: FIG. 15. Western blot of sulfenic acid (dimedione label) formation on purified E. coli Cys-TrxR after 5 minutes HOSCN exposure (molar ratios label each lane) or plus 1 minute PBS or N-acetylcysteine (NAC). For lane 8, H2O2 was used instead of HOSCN.
HOSCN is an interesting oxidant due to its affinity for only very acidic thiol groups on proteins (Barrett, T. J., et al. (2012) Inactivation of thiol-dependent enzymes by hypothiocyanous acid: role of sulfenyl thiocyanate and sulfenic acid intermediates. Free Radic Biol Med 52, 1075-1085). This property of HOSCN allows it to diffuse much easier to distant targets. Cys-TrxR has two cysteine residues in its active site that are acidic and it is expected that HOSCN oxidizes them as part of its mechanism of inactivation. Data has shown that dimedone labels sulfenic acid residues in E. coli Cys-TrxR upon selective thiol oxidation by HOSCN (FIG. 15). […] This probe can be used in tandem with western blotting and LC-MS approaches to characterize thiol oxidation of bacterial Cys-TrxRs. Although previous studies have looked at potential bacteria targets for oxidative inactivation by oxidants produced by haloperoxidases, Cys-TrxR was not previously identified (Tenovuo, J., and Pruitt, K. M. (1984) Relationship of the human salivary peroxidase system to oral health. J Oral Pathol 13, 573-584).

[6] = system: P. aeruginosa: AMT0009L; experiment: HOSCN reductase activity
[7] = system: P. aeruginosa: PAO1; experiment: HOSCN reductase activity
[8] = system: P. aeruginosa: AMT0294L; experiment: HOSCN reductase activity
[9] = system: P. aeruginosa: AMT0294L; experiment: Viability after HOSCN exposure; conditions: late disease antibiotic-resistant CF isolate
[10] = system: P. aeruginosa: AMT0027L; experiment: HOSCN reductase activity
[11] = system: P. aeruginosa: AMT0105L; experiment: HOSCN reductase activity
[12] = system: P. aeruginosa: AMT0145L; experiment: HOSCN reductase activity
[13] = system: P. aeruginosa: AMT0009L; experiment: Viability after HOSCN exposure; conditions: late disease antibiotic-resistant CF isolate
[14] = system: Human bronchiolar lung cells (16HBE); experiment: Lung cell viability (LDH release) after HOSCN generation; assay type: cell-based; conditions: 2 hrs, about 120 μM/hr, viability 24 hrs later
Method: as §1

[15] = system: E. coli: AB1157; experiment: HOSCN reductase activity
[16] = system: Sec-TrxR activity in J774 cells; experiment: Sec-TrxR activity induction in J774 cells; assay type: cell-based; conditions: 2 hours exposure, lysates measured 24 hours later
Method: FIG. 17. […] Cells were exposed to increasing concentrations of HOSCN, hydrogen peroxide or 100 ng/ml PA LPS for 2 hours and then cell lysates where measured 24 hours later for Sec-TrxR activity.
The role of extracellular SCN in modulating neutrophil responses to infectious stimuli, and to test how this impacts their ability to kill or suppress bacterial growth and attenuate pro-inflammatory environments is determined as provided for in Example 3 herein. De-identified human blood neutrophils from normal and CF subjects are used. Readouts include changes in bacterial growth rates, phagocytosis, and cytokine release over time correlated to changes in intracellular ^−SCN and Sec-TrxR levels. Additionally, how extracellular thiol levels modulate leukocyte function by changing intracellular thiol status and its known effects on dampening NFkB cell signaling pathways based on previous work with GSH (Gould, N. S., et al. (2011) Macropinocytosis of extracellular glutathione ameliorates tumor necrosis factor alpha release in activated macrophages. PLoS One 6, e25704) is disclosed. […] Since HOSCN is an oxidant and capable of redox signaling, examination of whether it can regulate its own metabolism by inducing Sec-TrxR expression is done.

Chain of purified E. coli Cys-TrxR (P0A9P4 whole entry): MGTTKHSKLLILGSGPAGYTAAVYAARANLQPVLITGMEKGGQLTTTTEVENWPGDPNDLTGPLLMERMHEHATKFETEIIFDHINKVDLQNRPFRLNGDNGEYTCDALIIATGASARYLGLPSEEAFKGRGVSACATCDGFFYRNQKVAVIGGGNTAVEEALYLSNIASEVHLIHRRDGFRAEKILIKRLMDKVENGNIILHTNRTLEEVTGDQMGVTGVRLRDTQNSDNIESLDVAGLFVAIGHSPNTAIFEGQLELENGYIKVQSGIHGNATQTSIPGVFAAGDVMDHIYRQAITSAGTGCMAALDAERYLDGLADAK

N#CSO [HOSCN, hypothiocyanite]
Bacterial viability (CFU) [1]: killing bacteria | Viability (%) [2]: 0% | Viability (%) [3]: 0% | Viability (%) [4]: 0.7 ± 0.4% | Oxidation of Cys-TrxR [5]: rapidly oxidized | Apparent Vmax (HOSCN reductase activity) [6]: 0.8 ± 0.3 nmol/mg/min | Apparent Vmax (HOSCN reductase activity) [7]: ND^c (No activity detected. Limit of detection = 0.5 nmol mg^−1 min^−1) | Apparent Vmax (HOSCN reductase activity) [8]: ND^c (No activity detected. Limit of detection = 0.5 nmol mg^−1 min^−1) | Viability (%) [9]: 0% | Apparent Vmax (HOSCN reductase activity) [10]: ND^c (No activity detected. Limit of detection = 0.5 nmol mg^−1 min^−1) | Apparent Vmax (HOSCN reductase activity) [11]: ND^c (No activity detected. Limit of detection = 0.5 nmol mg^−1 min^−1) | Apparent Vmax (HOSCN reductase activity) [12]: 1.4 ± 0.1 nmol/mg/min | Viability (%) [13]: 4.2 ± 2.1% | Lung cell viability [14]: spares host lung epithelial cells | Apparent Vmax (HOSCN reductase activity) [15]: ND^c (No activity detected. Limit of detection = 0.5 nmol mg^−1 min^−1) | Sec-TrxR activity [16]: induces Sec-TrxR activity
